This assay concerns human foetal foreskin fibroblasts (HFFF2). In words: Responsiveness of the in1360 genome to Trichostatin A: β-galactosidase activity in infected HFFF2 cells. The class given is cell-based. The method, then:
Trichostatin A (TSA) is an agent that inhibits deacetylases. When it is added to cells, histones and other proteins involved in transcriptions become hyperacetylated, because they are not deacetylated. This frequently results in activation of gene expression. In the case of HSV-1 mutants, the genome is not responsive to TSA once the quiescent state has been established. Monolayers of HFFF2 cells were infected with in1360 and maintained at 38.5° C. At 8 days after infection, cells were either untreated or treated with 660 nM TSA. After maintenance at 38.5° C. for a further 2 days, extracts were made and β-galactosidase activities were measured. The extracts from untreated cells gave a value of 121 units (range 113-129), whereas extracts from TSA-treated cells gave a value of 806 unites (range 739-873), a stimulation of 6.7-fold.

Here are results for one compound from patent US20040248300A1, “Enhanced gene expression using vectors” (priority 2001, published 2004).

In the case of `CC(/C=C/C(=O)NO)=C\[C@@H](C)C(=O)c1ccc(N(C)C)cc1` [TSA, Trichostatin A], the “β-galactosidase activity, extracts from TSA-treated cells” value (660 nM TSA added 8 days after infection, a further 2 days at 38.5° C., range 739-873) worked out at 806 unites. Moreover, for the setting “660 nM TSA for 2 days, 10 days after infection”, the “effect of TSA on X-gal stained cells (in words)” value is “increased the number of positive cells and the intensity of straining”. In addition, the “stimulation of β-galactosidase activity by TSA” value (660 nM TSA versus untreated) was 6.7 fold.
